The text below walks through data of patent US20170246586A1, “PROCESS AND APPARATUS FOR SEPARATING ENTRAINED AMINES FROM A GAS STREAM” (Carbonoro B.V., priority 2014, published 2017).

In general, solubility refers to the dissolved amount per volume that the medium holds. A high value points to a readily soluble substance.

In brackets after ≈: the same amount, converted by molar mass.

The conditions of data set [1]: J. Sangster, J. Phys. Chem. Ref. Data 18, 111, 1989; cited from earlier work.
A short description of data set [2]: amine content of the aqueous phase after phase separation of heated MCA/DMCA mixture in water. The following applies: 3 M MCA:DMCA 1:3 wt./wt. in water, phases separated. The data set is classed as physicochemical. The procedure:
Aqueous samples containing MCA and/or DMCA were analysed by UPLC-MS/MS. The UPLC apparatus was a Waters ACQUITY° system. Injection volume was 3 μl. Mobile phase A: 10 mM ammonium acetate, 0.1 wt. % formic acid in water. Mobile phase B: methanol. Column: ACQUITY UPLC® HSB T3, 1.8 μ2.1×50 mm. Column temperature: 30° C. Gradient (Table 1). The mass spectrometer was an AB SCIEX™ API 3200 apparatus.
A mixture (200 ml) of MCA and DMCA (total amine concentration is 3 M; ratio MCA:DMCA is 1:3 wt./wt.≈1:2.67 mol/mol; total absolute amount MCA is 92.8 g/l; total amount of DMCA is 278.4 g/l) in water was heated at various temperatures for 24 h during which phase separation occurred. The phases were separated and the aqueous phase was analysed for determining the amine content. As can be observed from the data in Table 9, the amount of amine decreases with increasing temperature.

A short description of data set [3]: Water solubility (20° C.). In kind it is physicochemical.
For data set [4] the following is noted: 20° C.; cited from earlier work.

Take `NC1CCCCC1` [cyclohexylamine]: the “measured log P” value in data set [1] is 1.49±0.10.

Consider `CNC1CCCCC1` [MCA, N-methylcyclohexylamine], for which the “amine content of aqueous phase (MCA)” value came to 6940 mg/L in data set [2] (heated 24 h at 40 ° C.), 5630 mg/L in data set [2] (heated 24 h at 50 ° C.), 5090 mg/L in data set [2] (heated 24 h at 60 ° C.) and 4520 mg/L in data set [2] (heated 24 h at 70 ° C.).

Compound `CN(C)C1CCCCC1` [DMCA, N,N-dimethylcyclohexylamine] returned a solubility in data set [3] of roughly 480 mM (≈ 61.1 mg/mL). Moreover, the Water solubility in data set [4] is 54 mg/mL.
